{"source": "paper PMC4823954", "about": "“From fighting depression to conquering tumors: a novel tricyclic thiazepine compound as a tubulin polymerization inhibitor” (Cell Death & Disease, 2016)", "key": {"KIT(V559D)": {"target": "T1, KIT(V559D) (Homo sapiens, UniProt P10721, V559D)", "T1 construct": "purchased DiscoveRx KINOMEscan", "T1 sequence (P10721 26-976 V559D)": "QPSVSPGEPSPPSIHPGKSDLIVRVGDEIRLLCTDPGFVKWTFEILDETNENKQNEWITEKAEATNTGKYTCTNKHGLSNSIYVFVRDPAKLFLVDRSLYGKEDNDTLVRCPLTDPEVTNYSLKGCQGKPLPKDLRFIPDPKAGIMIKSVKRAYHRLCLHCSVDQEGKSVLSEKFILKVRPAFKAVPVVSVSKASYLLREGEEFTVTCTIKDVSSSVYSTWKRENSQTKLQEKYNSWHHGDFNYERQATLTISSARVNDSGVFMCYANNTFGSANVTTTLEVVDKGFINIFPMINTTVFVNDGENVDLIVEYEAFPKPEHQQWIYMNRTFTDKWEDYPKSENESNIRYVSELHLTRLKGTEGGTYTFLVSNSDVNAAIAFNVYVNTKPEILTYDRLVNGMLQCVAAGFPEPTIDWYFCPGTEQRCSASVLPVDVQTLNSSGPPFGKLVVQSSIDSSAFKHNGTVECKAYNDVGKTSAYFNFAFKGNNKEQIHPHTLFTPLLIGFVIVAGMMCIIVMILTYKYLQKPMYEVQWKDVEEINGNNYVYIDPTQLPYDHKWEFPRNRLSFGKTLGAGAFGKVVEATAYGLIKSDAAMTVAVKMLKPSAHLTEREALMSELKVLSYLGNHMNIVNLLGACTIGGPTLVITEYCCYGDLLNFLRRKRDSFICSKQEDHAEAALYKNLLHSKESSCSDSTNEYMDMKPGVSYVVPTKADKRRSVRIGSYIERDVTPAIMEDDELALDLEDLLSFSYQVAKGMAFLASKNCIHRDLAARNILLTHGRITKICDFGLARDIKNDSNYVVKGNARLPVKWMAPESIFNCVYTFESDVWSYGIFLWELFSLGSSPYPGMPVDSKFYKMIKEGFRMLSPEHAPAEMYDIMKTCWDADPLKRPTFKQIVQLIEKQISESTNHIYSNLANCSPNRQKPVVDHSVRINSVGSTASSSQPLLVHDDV", "assay": "KINOMEscan", "type": "binding", "settings": "read-out: % Ctrl"}, "mice hippocampus cells": {"system": "mice hippocampus cells", "assay": "Cell cycle and apoptosis analysis", "settings": "2 μM", "quoted_text": "Cell cycle and apoptosis analyses were performed on a Guava EasyCyte Flow Cytometry System (Millipore, Billerica, MA, USA). Cells were seeded in 6-cm culture plates and treated with 2 μM TBPT or an equal volume of DMSO on the next day for the indicated times. To analyze the intracellular DNA content, cells were harvested, washed twice in PBS and fixed in 70% ethanol at −20 °C overnight. After the cells were washed in PBS, they were stained with Guava cell cycle reagent (Millipore) and analyzed via flow cytometry. For cell apoptosis analysis, the cells were harvested, washed in PBS, stained with PI/Annexin V-FITC reagent (Life Technologies) and analyzed by flow cytometry.\nThe cell cycle (a) and apoptosis (b) analysis of mice hippocampus cells. The new-born mice hippocampus cells were derived and cultured as previously report (F Lu et al. Cell Death and Disease, 2012). Cells were treated with DMSO or TBPT (2 μM) for the indicated times. After the cells were stained, they were analyzed for cell cycle and apoptosis using flow cytometry."}, "PIP5K1C": {"target": "T2, PIP5K1C (Homo sapiens, UniProt O60331)", "T2 construct": "purchased DiscoveRx KINOMEscan", "assay": "KINOMEscan", "type": "binding", "settings": "read-out: % Ctrl", "procedure,_shortened": "(§1)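 Competition binding panel of 442 non-mutant kinases: test compound at 5 and 10 μM competed with an active-site-directed ligand for 1 h with shaking. Bound kinase was eluted with 0.5 μM ligand and quantified by qPCR; %Ctrl = (compound − positive control)/(DMSO − positive control) × 100, lower meaning tighter binding.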"}, "BRK": {"target": "T3, BRK (Homo sapiens, UniProt Q13882)", "T3 construct": "purchased DiscoveRx KINOMEscan", "assay": "KINOMEscan", "type": "binding", "settings": "read-out: % Ctrl", "procedure,_shortened": "as §1"}, "EPHB6": {"target": "T4, EPHB6 (Homo sapiens, UniProt O15197)", "T4 construct": "purchased DiscoveRx KINOMEscan", "T4 sequence (O15197 32-1021)": "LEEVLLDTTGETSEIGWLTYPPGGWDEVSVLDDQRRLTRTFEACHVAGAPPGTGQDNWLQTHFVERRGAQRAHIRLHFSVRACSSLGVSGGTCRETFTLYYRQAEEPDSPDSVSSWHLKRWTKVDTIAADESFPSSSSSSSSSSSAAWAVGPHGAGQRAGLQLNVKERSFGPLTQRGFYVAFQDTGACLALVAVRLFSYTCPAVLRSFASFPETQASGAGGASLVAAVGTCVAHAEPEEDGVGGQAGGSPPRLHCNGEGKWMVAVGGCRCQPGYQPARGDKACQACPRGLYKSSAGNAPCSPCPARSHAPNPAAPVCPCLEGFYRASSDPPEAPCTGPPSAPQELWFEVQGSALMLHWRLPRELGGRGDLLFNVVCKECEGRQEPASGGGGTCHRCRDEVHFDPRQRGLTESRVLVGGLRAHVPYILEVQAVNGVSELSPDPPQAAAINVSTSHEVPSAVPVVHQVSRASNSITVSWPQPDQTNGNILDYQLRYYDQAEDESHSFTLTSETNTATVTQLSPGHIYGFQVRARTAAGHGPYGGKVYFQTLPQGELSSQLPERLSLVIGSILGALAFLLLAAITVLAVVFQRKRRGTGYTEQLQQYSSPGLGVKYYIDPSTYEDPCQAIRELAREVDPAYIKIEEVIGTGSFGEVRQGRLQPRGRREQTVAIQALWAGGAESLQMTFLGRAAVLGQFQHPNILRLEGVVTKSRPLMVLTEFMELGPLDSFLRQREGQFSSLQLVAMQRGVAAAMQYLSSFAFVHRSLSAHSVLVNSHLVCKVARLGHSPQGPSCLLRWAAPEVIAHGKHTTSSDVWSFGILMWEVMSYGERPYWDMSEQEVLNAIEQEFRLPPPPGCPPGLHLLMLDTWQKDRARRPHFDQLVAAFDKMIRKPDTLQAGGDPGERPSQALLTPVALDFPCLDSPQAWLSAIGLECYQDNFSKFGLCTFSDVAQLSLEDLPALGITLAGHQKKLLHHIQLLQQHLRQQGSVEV", "assay": "KINOMEscan", "type": "binding", "settings": "read-out: % Ctrl", "procedure,_shortened": "as §1"}, "MLK2": {"target": "T5, MLK2 (Homo sapiens, UniProt Q02779)", "T5 construct": "purchased DiscoveRx KINOMEscan", "assay": "KINOMEscan", "type": "binding", "settings": "read-out: % Ctrl", "procedure,_shortened": "as §1"}, "PAK4": {"target": "T6, PAK4 (Homo sapiens, UniProt O96013)", "T6 construct": "purchased DiscoveRx KINOMEscan", "assay": "KINOMEscan", "type": "binding", "settings": "read-out: % Ctrl", "procedure,_shortened": "as §1"}, "ZAP70": {"target": "T7, ZAP70 (Homo sapiens, UniProt P43403)", "T7 construct": "purchased DiscoveRx KINOMEscan", "assay": "KINOMEscan", "type": "binding", "settings": "read-out: % Ctrl", "procedure,_shortened": "as §1"}, "MYO3B": {"target": "T8, MYO3B (Homo sapiens, UniProt Q8WXR4)", "T8 construct": "purchased DiscoveRx KINOMEscan", "assay": "KINOMEscan", "type": "binding", "settings": "read-out: % Ctrl", "procedure,_shortened": "as §1"}, "FLT3(D835H)": {"target": "T9, FLT3(D835H) (Homo sapiens, UniProt P36888, D835H)", "T9 construct": "purchased DiscoveRx KINOMEscan", "assay": "KINOMEscan", "type": "binding", "settings": "read-out: % Ctrl"}, "Caco-2": {"system": "Caco-2", "assay": "Caco-2 cell bi-directional transport assay", "type": "in vitro ADME", "settings": "Caco-2", "description": "(§2) As in vivo investigations are generally time consuming and expensive, it is advantageous to eliminate those compounds that are not suitable for animal experiments. One of the necessary steps is to screen the initial hits using assays testing their possible behaviors in vivo. To evaluate the drug-like properties of TBPT, a panel of in vitro assays was preformed (Table 1). The parallel artificial membrane permeability assay (PAMPA) was used to evaluate the cell permeability of the compounds. Compounds with a Pe >[…] are classified as highly permeable. […] The Caco-2 assay was used to predict the oral absorption values of the compounds in vivo. Compounds with a Caco-2 efflux ratio >2 may be subject to active efflux and should not be developed further. […] The half-life (T1/2) in human liver microsomes is used to predict the metabolism properties of compounds in vivo. […] A very long T1/2 (>24 h) increases the risk of cumulative toxicity and is not desirable. […] T1/2 in plasma indicates the stability of the drug in human blood; the high T1/2 values of these compounds indicated better stability in vivo. Plasma protein binding influences the distribution of drugs into body tissues, and compounds with high plasma protein binding (>99%) are limited in terms of the amount of free compound that are available to act on the targeted tissue.\n(§3) The PAMPA and Caco-2 cell bi-directional transport assay of the derivatives were conducted as described in our previous report.[65], [66] The human liver microsome, plasma stability and plasma protein-binding assays were conducted following modified protocols reported by Cyprotex (Macclesfield, UK).[67], [68], [69], [70]"}, "[1]": {"assay": "Caco-2 cell bi-directional transport assay", "type": "in vitro ADME", "settings": "human; for Papp: Caco-2", "description": "as §2, §3"}, "NHFB cells": {"system": "NHFB cells", "assay": "Cell cycle and apoptosis analysis", "type": "cell-based, human", "settings": "2 μM"}, "plasma protein binding": {"assay": "plasma protein binding", "type": "in vitro ADME", "description": "as §2, with “tissue. […]” for “tissue.”"}, "FGFR3(G697C)": {"target": "T10, FGFR3(G697C) (Homo sapiens, UniProt P22607, G697C)", "T10 construct": "purchased DiscoveRx KINOMEscan", "T10 sequence (P22607 23-806 G697C)": "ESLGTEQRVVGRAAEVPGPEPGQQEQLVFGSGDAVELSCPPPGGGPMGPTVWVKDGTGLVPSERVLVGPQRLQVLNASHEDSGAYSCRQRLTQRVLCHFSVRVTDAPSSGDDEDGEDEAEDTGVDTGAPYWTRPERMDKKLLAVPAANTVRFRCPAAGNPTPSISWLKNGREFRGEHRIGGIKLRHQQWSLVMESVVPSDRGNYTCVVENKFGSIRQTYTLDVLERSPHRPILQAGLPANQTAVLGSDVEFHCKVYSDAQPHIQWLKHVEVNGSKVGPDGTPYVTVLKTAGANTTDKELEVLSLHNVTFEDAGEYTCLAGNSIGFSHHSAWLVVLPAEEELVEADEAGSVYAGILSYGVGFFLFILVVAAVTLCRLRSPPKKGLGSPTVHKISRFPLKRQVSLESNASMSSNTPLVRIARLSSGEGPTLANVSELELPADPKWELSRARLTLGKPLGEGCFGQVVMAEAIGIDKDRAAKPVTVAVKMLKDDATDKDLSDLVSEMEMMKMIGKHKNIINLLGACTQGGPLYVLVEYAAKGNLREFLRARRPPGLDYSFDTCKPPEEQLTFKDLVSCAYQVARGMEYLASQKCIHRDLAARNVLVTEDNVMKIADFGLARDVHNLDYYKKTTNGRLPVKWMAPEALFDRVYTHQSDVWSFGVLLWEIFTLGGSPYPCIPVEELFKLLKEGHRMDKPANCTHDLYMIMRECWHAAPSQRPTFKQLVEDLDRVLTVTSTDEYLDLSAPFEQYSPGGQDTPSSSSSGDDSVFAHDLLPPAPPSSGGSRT", "assay": "KINOMEscan", "type": "binding", "settings": "read-out: % Ctrl"}, "[2]": {"target": "T11, ABL1(Q252H)-phosphorylated (Homo sapiens, UniProt P00519, Q252H)", "T11 construct": "purchased DiscoveRx KINOMEscan", "assay": "KINOMEscan", "type": "binding", "settings": "read-out: % Ctrl"}, "[3]": {"target": "T12, EGFR(L747-S752del, P753S) (Homo sapiens, UniProt P00533, DEL747-752/P753S)", "T12 construct": "purchased DiscoveRx KINOMEscan", "T12 sequence (P00533 with tags, fused parts or gaps DEL747-752/P753S limits assumed)": "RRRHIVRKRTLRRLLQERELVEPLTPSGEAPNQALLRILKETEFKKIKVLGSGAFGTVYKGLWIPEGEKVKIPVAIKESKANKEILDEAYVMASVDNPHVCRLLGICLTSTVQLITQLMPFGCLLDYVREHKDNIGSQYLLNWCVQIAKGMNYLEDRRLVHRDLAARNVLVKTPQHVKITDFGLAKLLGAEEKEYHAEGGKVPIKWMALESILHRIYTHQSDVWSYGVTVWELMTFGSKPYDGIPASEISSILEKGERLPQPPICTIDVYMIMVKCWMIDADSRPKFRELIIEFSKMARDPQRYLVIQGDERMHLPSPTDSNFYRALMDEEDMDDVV", "assay": "KINOMEscan", "type": "binding", "settings": "read-out: % Ctrl"}, "NHFB": {"system": "NHFB", "assay": "Cell viability assay (sulforhodamine B)", "type": "cell-based", "settings": "Fibroblast; NHFB normal human fibroblasts, 72 h", "description": "All biological reagents and solvents were obtained from commercial suppliers and used as recommended. The human NSCLC cell line H460 and P-gp-overexpressing drug-resistant cell line H460TaxR were cultured in RPMI-1640 medium supplemented with 10% fetal bovine serum, 100 units/ml penicillin and […] streptomycin. The NHFB cell line NHFB was cultured in DMEM with the same supplements. All cells were maintained in a 37 °C incubator with 95% humidity and 5% CO2.\nThe cell viability was determined using the sulforhodamine B assay.[64] In brief, cells (4000 cells in 100 μl medium) were seeded in 96-well culture plates and incubated for 24 h. The cells were treated with the compounds or with an equal volume (0.1%) of DMSO for 72 h. The cell viability was calculated using the following formula: cell viability=Atreatment/Acontrol. The EC50 values were determined using the Sigma Plot 10.0 software package (Systat Software Inc., San Jose, CA, USA)."}, "PIK3CA(E545A)": {"target": "T13, PIK3CA(E545A) (Homo sapiens, UniProt P42336, E545A)", "T13 construct": "purchased DiscoveRx KINOMEscan", "T13 sequence (P42336 whole entry E545A)": "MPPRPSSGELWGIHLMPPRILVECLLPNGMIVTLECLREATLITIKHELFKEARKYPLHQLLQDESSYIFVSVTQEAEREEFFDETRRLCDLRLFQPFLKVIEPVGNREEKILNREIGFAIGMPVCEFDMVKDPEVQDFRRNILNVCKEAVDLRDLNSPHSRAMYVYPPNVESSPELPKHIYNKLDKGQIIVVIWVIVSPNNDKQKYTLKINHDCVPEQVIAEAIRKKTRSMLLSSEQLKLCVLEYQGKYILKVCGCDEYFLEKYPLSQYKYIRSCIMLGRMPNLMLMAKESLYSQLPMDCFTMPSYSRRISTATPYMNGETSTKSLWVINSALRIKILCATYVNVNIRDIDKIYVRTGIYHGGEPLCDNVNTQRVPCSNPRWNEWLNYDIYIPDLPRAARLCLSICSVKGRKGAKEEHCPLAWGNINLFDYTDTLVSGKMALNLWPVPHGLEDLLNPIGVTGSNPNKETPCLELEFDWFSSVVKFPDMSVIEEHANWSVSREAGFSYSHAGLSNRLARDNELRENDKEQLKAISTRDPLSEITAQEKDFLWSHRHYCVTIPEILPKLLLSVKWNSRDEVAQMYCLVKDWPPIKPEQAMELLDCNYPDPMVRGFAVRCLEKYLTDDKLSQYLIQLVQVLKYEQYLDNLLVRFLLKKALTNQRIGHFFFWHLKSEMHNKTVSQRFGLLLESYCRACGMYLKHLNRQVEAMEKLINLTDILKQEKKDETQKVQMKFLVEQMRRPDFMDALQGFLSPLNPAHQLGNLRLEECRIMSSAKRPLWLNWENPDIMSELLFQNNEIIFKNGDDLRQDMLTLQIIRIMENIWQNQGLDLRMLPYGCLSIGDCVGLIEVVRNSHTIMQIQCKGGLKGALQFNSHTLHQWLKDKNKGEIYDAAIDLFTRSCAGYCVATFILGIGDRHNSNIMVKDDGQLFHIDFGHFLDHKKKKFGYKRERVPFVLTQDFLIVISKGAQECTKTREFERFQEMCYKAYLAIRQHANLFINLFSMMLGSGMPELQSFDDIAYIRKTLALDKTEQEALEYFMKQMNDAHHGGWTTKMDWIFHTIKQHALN", "assay": "KINOMEscan", "type": "binding", "settings": "read-out: % Ctrl"}}, "note": "Where two headings read alike, the source gives them in different places.", "data": [{"smiles": "Cc1ccc(C2=Nc3cccnc3S(=O)(=O)c3ccccc32)cc1", "note": "[TBPT, 6-(p-tolyl)benzo[f] pyrido[2,3-b][1,4] thiazepine 11,11-dioxide]", "values": [{"measurement": "remaining binding at 5 µM", "setting": "KIT(V559D); 5 μM", "value": 72, "unit": "%"}, {"measurement": "remaining binding at 10 µM", "setting": "KIT(V559D); 10 μM", "value": 91, "unit": "%"}, {"measurement": "cell cycle arrest or apoptosis", "setting": "mice hippocampus cells", "value": "very little cell cycle arrest or apoptosis"}, {"measurement": "remaining binding at 5 µM", "setting": "PIP5K1C; 5 μM", "value": 100, "unit": "%"}, {"measurement": "remaining binding at 10 µM", "setting": "PIP5K1C; 10 μM", "value": 94, "unit": "%"}, {"measurement": "remaining binding at 5 µM", "setting": "BRK; 5 μM", "value": 100, "unit": "%"}, {"measurement": "remaining binding at 10 µM", "setting": "BRK; 10 μM", "value": 98, "unit": "%"}, {"measurement": "remaining binding at 5 µM", "setting": "EPHB6; 5 μM", "value": 99, "unit": "%"}, {"measurement": "remaining binding at 10 µM", "setting": "EPHB6; 10 μM", "value": 100, "unit": "%"}, {"measurement": "remaining binding at 5 µM", "setting": "MLK2; 5 μM", "value": 70, "unit": "%"}, {"measurement": "remaining binding at 10 µM", "setting": "MLK2; 10 μM", "value": 100, "unit": "%"}, {"measurement": "remaining binding at 5 µM", "setting": "PAK4; 5 μM", "value": 100, "unit": "%"}, {"measurement": "remaining binding at 10 µM", "setting": "PAK4; 10 μM", "value": 100, "unit": "%"}, {"measurement": "remaining binding at 5 µM", "setting": "ZAP70; 5 μM", "value": 100, "unit": "%"}, {"measurement": "remaining binding at 10 µM", "setting": "ZAP70; 10 μM", "value": 99, "unit": "%"}, {"measurement": "remaining binding at 5 µM", "setting": "MYO3B; 5 μM", "value": 100, "unit": "%"}, {"measurement": "remaining binding at 10 µM", "setting": "MYO3B; 10 μM", "value": 100, "unit": "%"}, {"measurement": "remaining binding at 5 µM", "setting": "FLT3(D835H); 5 μM", "value": 100, "unit": "%"}, {"measurement": "remaining binding at 10 µM", "setting": "FLT3(D835H); 10 μM", "value": 97, "unit": "%"}, {"measurement": "Efflux ratio (B2A/A2B)", "setting": "Caco-2", "value": "0.59±0.17"}, {"measurement": "efflux ratio", "setting": "[1]; Caco-2, Caco-2, read-out: Efflux ratio (B2A/A2B)", "value": "0.4 to 0.8"}, {"measurement": "Papp", "setting": "[1]; read-out: Caco-2 Papp A/B", "value": "34.5 ± 2.06", "unit": "×10⁻⁶ cm/s"}, {"measurement": "Papp", "setting": "[1]; read-out: Caco-2 Papp B/A", "value": "20.6 ± 7", "unit": "×10⁻⁶ cm/s"}, {"measurement": "cell cycle arrest or apoptosis", "setting": "NHFB cells", "value": "very little cell cycle arrest or apoptosis"}, {"measurement": "fraction unbound", "setting": "plasma protein binding", "value": 0.0164}, {"measurement": "remaining binding at 5 µM", "setting": "FGFR3(G697C); 5 μM", "value": 100, "unit": "%"}, {"measurement": "remaining binding at 10 µM", "setting": "FGFR3(G697C); 10 μM", "value": 82, "unit": "%"}, {"measurement": "remaining binding at 5 µM", "setting": "[2]; 5 μM", "value": 83, "unit": "%"}, {"measurement": "remaining binding at 10 µM", "setting": "[2]; 10 μM", "value": 100, "unit": "%"}, {"measurement": "remaining binding at 5 µM", "setting": "[3]; 5 μM", "value": 76, "unit": "%"}, {"measurement": "remaining binding at 10 µM", "setting": "[3]; 10 μM", "value": 91, "unit": "%"}, {"measurement": "EC50", "setting": "NHFB", "value": "> 100", "unit": "µM"}, {"measurement": "remaining binding at 5 µM", "setting": "PIK3CA(E545A); 5 μM", "value": 100, "unit": "%"}, {"measurement": "remaining binding at 10 µM", "setting": "PIK3CA(E545A); 10 μM", "value": 100, "unit": "%"}]}]}
